Assay results reported in patent US7053053B2, “Humanin-like peptide and use thereof” (Takeda Chemical Industries, Ltd., priority 2001, dated 2006).

Legend:
[1] = system: nerve cells into which the causative gene of familial Alzheimer's disease is introduced; details: nerve cells with the causative gene of familial Alzheimer's disease introduced; Proc. Natl. Acad. Sci. USA 98: 6336–6341, 2001; cited from earlier work
nerve cells = details: induced by the addition of β amyloid; Proc. Natl. Acad. Sci. USA 98: 6336–6341, 2001; cited from earlier work
[2] = system: rat adrenal medulla-derived pheochromocytoma cell PC12h; assay: Inhibition of glutamic acid-induced cell death of PC12h cells (LDH activity of cell extract); assay type: cell-based; details: for cell survival ratio: 1 mM glutamic acid, 72 hrs, survival in glutamic acid non-added plot = 100%, peptide not-added plot 34.0%
Procedure: Inhibitory Activity of the Humanin-Like Peptide against Glutanic Acid-Induced Cell Death of Rat Adrenal Medulla-Derived Pheochromocytoma Cell PC12h
PC12h cells (supplied by Prof. Hiroshi Hatanaka, Institute for Protein Research, Osaka University; Hatanaka, H., Brain Research 222: 225–233, 1981) were plated at a density of 2×10^4 cells/cm^2 in collagen-coated 96-well plates (Iwaki) containing Dulbecco's modified Eagle's medium (hereinafter referred to as “DMEM”) containing 10% fetal bovine serum and 5% horse serum. After 24 hrs, the medium was exchanged for 100 μl of DMEM containing […] HEPES (pH 7.5). At the same time, various concentrations of the humanin-like peptide prepared in Example 2 (SEQ ID NO: 4) and glutamic acid to give a concentration of 1 mM were added to the medium. After 72 hrs, cells were lysed with 100 μl of phosphate buffered saline containing 0.2% Tween 20. Then, the lactate dehydrogenase (LDH) activity of the cell extract was determined with LDH Cytotoxic Test WAKO (Wako Purechemical Industries).

Substance	death of nerve cells [1]	death of nerve cells (nerve cells)	glutamic acid-induced cell death ([2]; PC12h cells, conclusion in words)	cell survival ratio ([2]; humanin-like peptide 1 μM)	cell survival ratio ([2]; humanin-like peptide 10 μM)
humanin: peptide consisting of 24 residues (WO 01/21787), encoded by a gene cloned from the occipital lobe by Hashimoto et al. (MAPRGFSCLLLLTSEIDLPVKRRA; Humanin; UniProt Q8IVG9 1-24, looked up)	inhibited	inhibited	–	–	–
humanin-like peptide: polypeptide comprising the amino acid sequence as shown in SEQ ID NO: 4; 24 residues, 6 different from humanin; synthesised in Example 2 (MARRGFSCLLLSTTATDLPVKRRT; Human)	–	–	inhibited	59.3%	74.6%
